Source: patent publication US20110294722A1, “ANTIMICROBIAL PEPTIDES” (priority 2008, published 2011)
Where two headings read alike, the source gives them in different places. No end group written: not given here.

Columns and labels:
Format in all cases: cell-based
[1] = test system: Pectobacterium carotovorum; details: Pectobacterium carotovorum; for MIC (>90% inhibition): 1-2 days at 25° C.; for LC (lethal concentration, 100% inhibition): at least 4 days of incubation
Experimental: (§1) In-vitro inhibition assays were performed in sterile flat-bottom 96-well plates (Greiner bio-one, Frickenhausen). Antimicrobial peptides were dissolved in 0.01% acetic acid containing 0.2% BSA (500 μg/ml), filter sterilized and stored at −20° C. For inhibition assays dilutions of peptides ranging from 5 to 200 μg/ml were prepared and 10 μl (antibacterial assay) or 20 (antifungal assay) of each concentration was loaded per well.
(§2) Bacteria colonies from overnight agar plate cultures were resuspended into 5 ml LB-medium or HPG-medium (OD600 nm=0.08-0.1) and diluted into LB-medium/HPG-medium (1:100). 90 μl of this suspension containing about 10^5-10^6 CFU/ml of tested bacteria were added to each well resulting in final peptide concentrations of 0, 0.5, 1, 2, 5, 10, and 20 μg/ml. […] The lowest concentration, in which there is no observable growth (>90% inhibition) is referred to as minimal inhibitory concentration (MIC). […] For each peptide concentration two identical inhibition assays were performed.

[2] = test system: Pseudomonas syringae pv. syringae; details: Pseudomonas syringae pv. syringae; for MIC (>90% inhibition): 1-2 days at 25° C.; for LC (lethal concentration, 100% inhibition): at least 4 days of incubation
Experimental: as §1, §2

[3] = test system: Pseudomonas corrugata; details: Pseudomonas corrugata; for MIC (>90% inhibition): 1-2 days at 25° C.; for LC (lethal concentration, 100% inhibition): at least 4 days of incubation
Experimental: as §1, §2

[4] = test system: Pseudomonas syringae pv. tomato; details: for LC (lethal concentration, 100% inhibition): at least 4 days of incubation
Experimental: as §1, §2

[5] = test system: Clavibacter michiganensis; experiment: In-vitro inhibition assay (MIC and LC), Example 3; details: for MIC (>90% inhibition): 1-2 days at 25° C.; for LC (lethal concentration, 100% inhibition): at least 4 days of incubation
Experimental: as §1, §2

[6] = test system: Xanthomonas vesicatoria; experiment: In-vitro inhibition assay (MIC and LC), Example 3; details: for MIC (>90% inhibition): 1-2 days at 25° C.; for LC (lethal concentration, 100% inhibition): at least 4 days of incubation
Experimental: as §1, §2

[7] = Pseudomonas syringae pv. tomato, 1-2 days at 25° C.
[8] = Pseudomonas syringae pv. tomato

Substance	MIC (>90% inhibition) [1]	LC (lethal concentration, 100% inhibition) [1]	MIC (>90% inhibition) [2]	LC (lethal concentration, 100% inhibition) [2]	MIC (>90% inhibition) [3]	LC (lethal concentration, 100% inhibition) [3]	MIC (>90% inhibition) [4, 7]	LC (lethal concentration, 100% inhibition) [4, 8]	MIC (>90% inhibition) [5]	LC (lethal concentration, 100% inhibition) [5]	MIC (>90% inhibition) [6]	LC (lethal concentration, 100% inhibition) [6]	MIC (>90% inhibition) [4]
RKKKAKIIKKII-NH2 [SP1-10]	>10/>10 μg/ml	>10/>10 μg/ml	1.0 µg/mL	5.0 µg/mL	10/10 μg/ml	10/10 μg/ml	>10/>10 μg/ml	>10/>10 μg/ml	>10/>10 μg/ml	>10/>10 μg/ml	>10/>10 μg/ml	>10/>10 μg/ml	–
RKKRKKLLKRLL-NH2 [SP1-18]	>10/>10 μg/ml	>10/>10 μg/ml	0.1 µg/mL	5.0 µg/mL	0.25 µg/mL	0.5 µg/mL	1.0 µg/mL	0.5 µg/mL	5.0/5.0 μg/ml	5.0/5.0 μg/ml	5.0 µg/mL	10 µg/mL	–
RKKKIKIIKKII-NH2 [SP1-9]	>10/>10 μg/ml	>10/>10 μg/ml	0.5 µg/mL	1.0 µg/mL	5.0/5.0 μg/ml	5.0/5.0 μg/ml	5.0 µg/mL	10 µg/mL	2.5 µg/mL	10 µg/mL	2.5/2.5 μg/ml	2.5/2.5 μg/ml	–
RKKKVKLLKRLV-NH2 [SP1-3]	>10/>10 μg/ml	>10/>10 μg/ml	0.25 µg/mL	1.0 µg/mL	2.5/2.5 μg/ml	2.5/2.5 μg/ml	5.0 µg/mL	10 µg/mL	>10/>10 μg/ml	>10/>10 μg/ml	>10/>10 μg/ml	>10/>10 μg/ml	–
RKKKIKIIKRLI-NH2 [SP1-8]	>10/>10 μg/ml	>10/>10 μg/ml	0.25 µg/mL	0.5 µg/mL	2.5/2.5 μg/ml	2.5/2.5 μg/ml	–	10/10 μg/ml	5.0 µg/mL	> 10 µg/mL	2.5 µg/mL	5.0 µg/mL	10/10 μg/ml
RKKRVKLLKRLV-NH2 [SP1-2]	>10/>10 μg/ml	>10/>10 μg/ml	2.5 µg/mL	5.0 µg/mL	0.5 µg/mL	2.5 µg/mL	5.0/5.0 μg/ml	5.0/5.0 μg/ml	10/>10 μg/ml	10/>10 μg/ml	5.0 µg/mL	> 10 µg/mL	–
RKKKLKIIKRLI-NH2 [SP1-7]	>10/>10 μg/ml	>10/>10 μg/ml	0.1 µg/mL	0.25 µg/mL	0.5 µg/mL	2.5 µg/mL	–	10/10 μg/ml	2.5/2.5 μg/ml	2.5/2.5 μg/ml	1.0/1.0 μg/ml	1.0/1.0 μg/ml	10/10 μg/ml
RKKKLKVVKRLV-NH2 [SP1-6]	>10/>10 μg/ml	>10/>10 μg/ml	5.0 µg/mL	> 10 µg/mL	>10/>10 μg/ml	>10/>10 μg/ml	1.0/1.0 μg/ml	1.0/1.0 μg/ml	10/>10 μg/ml	10/>10 μg/ml	>10/>10 μg/ml	>10/>10 μg/ml	–
RKKRLRVVRRLV-NH2 [SP1-5]	>10/>10 μg/ml	>10/>10 μg/ml	>10/>10 μg/ml	>10/>10 μg/ml	5.0 µg/mL	–	1.0 µg/mL	2.5 µg/mL	>10/>10 μg/ml	>10/>10 μg/ml	>10/>10 μg/ml	>10/>10 μg/ml	–
RKKRKKLIKRLI-NH2 [Sp1-19]	>10/>10 μg/ml	>10/>10 μg/ml	< 0.1 µg/mL	5.0 µg/mL	0.5 µg/mL	1.0 µg/mL	>10/>10 μg/ml	>10/>10 μg/ml	5.0/5.0 μg/ml	5.0/5.0 μg/ml	5.0 µg/mL	> 10 µg/mL	–
RKKRKKLLKRLI-NH2 [SP1-20]	>10/>10 μg/ml	>10/>10 μg/ml	0.25 µg/mL	10 µg/mL	0.5/0.5 μg/ml	0.5/0.5 μg/ml	10/>10 μg/ml	10/>10 μg/ml	5.0 µg/mL	10 µg/mL	10/>10 μg/ml	10/>10 μg/ml	–
KRKKLLKRLI-NH2 [SP1-16]	>10/>10 μg/ml	>10/>10 μg/ml	0.1 µg/mL	2.5 µg/mL	0.5 µg/mL	1.0 µg/mL	1.0/1.0 μg/ml	1.0/1.0 μg/ml	>10/>10 μg/ml	>10/>10 μg/ml	10/>10 μg/ml	10/>10 μg/ml	–
